Measurements reported in patent US20250147039A1, “Compounds for complexation of rare earth elements and/or s-, p-, d- block metals, their coordination compounds, peptide conjugates, method of their preparation and use thereof” (USTAV ORGANICKE CHEMIE A BIOCHEMIE AV CR V.V.I., priority 2021, published 2025).

Tests used:
[1] = Formation of 1,5-cz-[Ln(Lig)] from Lig and Ln^III ions (metal dependent click-zip), MOPS/NaOH buffer pH 7.0, analytical HPLC (Charts 1, 2); conditions: MOPS/NaOH buffer pH 7.0
[2] = Formation of 1,5-cz-[M(Lig)] from Lig and M^III ions (metal dependent click-zip) (Charts 4, 5); format: physicochemical; conditions: MOPS/NaOH buffer pH 7.0, TD728, TD827 in 50% i-PrOH; for conversion to 1,5-cz-[M(Lig)], Y^III: TD714 sum of two diastereoisomers

Row | SMILES | conversion to 1,5-cz-[Ln(Lig)], Ce^III ([1]; after 1 week at 80° C.) | conversion to 1,5-cz-[Ln(Lig)], Ce^III ([1]; after 1 hour at 80° C.) | conversion to 1,5-cz-[Ln(Lig)], Dy^III ([1]; after 1 week at 80° C.) | conversion to 1,5-cz-[Ln(Lig)], Dy^III ([1]; after 1 hour at 80° C.) | conversion to 1,5-cz-[Ln(Lig)], Er^III ([1]; after 1 week at 80° C.) | conversion to 1,5-cz-[Ln(Lig)], Er^III ([1]; after 1 hour at 80° C.) | conversion to 1,5-cz-[Ln(Lig)], Eu^III ([1]; after 1 week at 80° C.) | conversion to 1,5-cz-[Ln(Lig)], Eu^III ([1]; after 1 hour at 80° C.) | conversion to 1,5-cz-[Ln(Lig)], Gd^III ([1]; after 1 week at 80° C.) | conversion to 1,5-cz-[Ln(Lig)], Gd^III ([1]; after 1 hour at 80° C.) | conversion to 1,5-cz-[Ln(Lig)], Ho^III ([1]; after 1 week at 80° C.) | conversion to 1,5-cz-[Ln(Lig)], Ho^III ([1]; after 1 hour at 80° C.) | conversion to 1,5-cz-[Ln(Lig)], La^III ([1]; after 1 week at 80° C.) | conversion to 1,5-cz-[Ln(Lig)], La^III ([1]; after 1 hour at 80° C.) | conversion to 1,5-cz-[Ln(Lig)], Lu^III ([1]; after 1 week at 80° C.) | conversion to 1,5-cz-[Ln(Lig)], Lu^III ([1]; after 1 hour at 80° C.) | conversion to 1,5-cz-[Ln(Lig)], Nd^III ([1]; after 1 week at 80° C.) | conversion to 1,5-cz-[Ln(Lig)], Nd^III ([1]; after 1 hour at 80° C.) | conversion to 1,5-cz-[Ln(Lig)], Pr^III ([1]; after 1 week at 80° C.) | conversion to 1,5-cz-[Ln(Lig)], Pr^III ([1]; after 1 hour at 80° C.) | further results
1 | [N-]=[N+]=NCc1cccc(CN2CCN(CC(=O)O)CCN(Cc3cccc(C#Cc4ccccc4)n3)CCN(CC(=O)O)CC2)n1 [TD944] | 3% | 0% | 51% | 0% | 84% | 1% | 19% | 0% | 23% | 0% | 68% | 1% | 4% | 0% | 94% | 2% | 8% | 0% | 6% | 0% | conversion to 1,5-cz-[Ln(Lig)], Sm^III ([1]; after 1 week at 80° C.): 16%; conversion to 1,5-cz-[Ln(Lig)], Sm^III ([1]; after 1 hour at 80° C.): 0%; conversion to 1,5-cz-[Ln(Lig)], Tb^III ([1]; after 1 week at 80° C.): 37%; conversion to 1,5-cz-[Ln(Lig)], Tb^III ([1]; after 1 hour at 80° C.): 0%; conversion to 1,5-cz-[Ln(Lig)], Tm^III ([1]; after 1 week at 80° C.): 93%; conversion to 1,5-cz-[Ln(Lig)], Tm^III ([1]; after 1 hour at 80° C.): 1%; conversion to 1,5-cz-[Ln(Lig)], Yb^III ([1]; after 1 week at 80° C.): 95%; conversion to 1,5-cz-[Ln(Lig)], Yb^III ([1]; after 1 hour at 80° C.): 2%; conversion to 1,5-cz-[M(Lig)], Sc^III ([2]; 1 week at 80° C.): 4%; conversion to 1,5-cz-[M(Lig)], Y^III ([2]; 1 week at 80° C.): 63%; conversion to 1,5-cz-[M(Lig)], Sc^III ([2]; 1 hour at 80° C.): 0%; conversion to 1,5-cz-[M(Lig)], Y^III ([2]; 1 hour at 80° C.): 1%
2 | [N-]=[N+]=NCc1cccc(CN2CCN(CC(=O)O)CCN(Cc3cccc(C#CC45CC6CC(CC(C6)C4)C5)n3)CCN(CC(=O)O)CC2)n1 [TD992] | 20% | 0% | 81% | 1% | 95% | 2% | 59% | 1% | 61% | 1% | 89% | 2% | 22% | 0% | 99% | 6% | 40% | 0% | 33% | 0% | conversion to 1,5-cz-[Ln(Lig)], Sm^III ([1]; after 1 week at 80° C.): 55%; conversion to 1,5-cz-[Ln(Lig)], Sm^III ([1]; after 1 hour at 80° C.): 1%; conversion to 1,5-cz-[Ln(Lig)], Tb^III ([1]; after 1 week at 80° C.): 73%; conversion to 1,5-cz-[Ln(Lig)], Tb^III ([1]; after 1 hour at 80° C.): 1%; conversion to 1,5-cz-[Ln(Lig)], Tm^III ([1]; after 1 week at 80° C.): 98%; conversion to 1,5-cz-[Ln(Lig)], Tm^III ([1]; after 1 hour at 80° C.): 4%; conversion to 1,5-cz-[Ln(Lig)], Yb^III ([1]; after 1 week at 80° C.): 99%; conversion to 1,5-cz-[Ln(Lig)], Yb^III ([1]; after 1 hour at 80° C.): 5%; conversion to 1,5-cz-[M(Lig)], Sc^III ([2]; 1 week at 80° C.): 2%; conversion to 1,5-cz-[M(Lig)], Y^III ([2]; 1 week at 80° C.): 87%; conversion to 1,5-cz-[M(Lig)], Sc^III ([2]; 1 hour at 80° C.): 0%; conversion to 1,5-cz-[M(Lig)], Y^III ([2]; 1 hour at 80° C.): 2%
3 | CC(C)(N)C#Cc1cccc(CN2CCN(CC(=O)O)CCN(Cc3cc(-c4ccccc4)cc(CN=[N+]=[N-])n3)CCN(CC(=O)O)CC2)n1 [TD1054] | 4% | 0% | 70% | 10% | 88% | 26% | 28% | 3% | 33% | 3% | 79% | 16% | 4% | 0% | 98% | 63% | 11% | 1% | 10% | 0% | conversion to 1,5-cz-[Ln(Lig)], Sm^III ([1]; after 1 week at 80° C.): 22%; conversion to 1,5-cz-[Ln(Lig)], Sm^III ([1]; after 1 hour at 80° C.): 2%; conversion to 1,5-cz-[Ln(Lig)], Tb^III ([1]; after 1 week at 80° C.): 55%; conversion to 1,5-cz-[Ln(Lig)], Tb^III ([1]; after 1 hour at 80° C.): 6%; conversion to 1,5-cz-[Ln(Lig)], Tm^III ([1]; after 1 week at 80° C.): 94%; conversion to 1,5-cz-[Ln(Lig)], Tm^III ([1]; after 1 hour at 80° C.): 39%; conversion to 1,5-cz-[Ln(Lig)], Yb^III ([1]; after 1 week at 80° C.): 97%; conversion to 1,5-cz-[Ln(Lig)], Yb^III ([1]; after 1 hour at 80° C.): 53%; conversion to 1,5-cz-[M(Lig)], Sc^III ([2]; 1 week at 80° C.): 61%; conversion to 1,5-cz-[M(Lig)], Y^III ([2]; 1 week at 80° C.): 80%; conversion to 1,5-cz-[M(Lig)], Sc^III ([2]; 1 hour at 80° C.): 4%; conversion to 1,5-cz-[M(Lig)], Y^III ([2]; 1 hour at 80° C.): 16%
4 | C#Cc1cccc(CN2CCN(CC(=O)O)CCN(Cc3cc(C(F)(F)F)cc(CN=[N+]=[N-])n3)CCN(CC(=O)O)CC2)n1 [TD1063] | 1% | 1% | 86% | 15% | 93% | 33% | 73% | 4% | 74% | 5% | 90% | 22% | 5% | 0% | 95% | 54% | 52% | 2% | 35% | 1% | conversion to 1,5-cz-[Ln(Lig)], Sm^III ([1]; after 1 week at 80° C.): 57%; conversion to 1,5-cz-[Ln(Lig)], Sm^III ([1]; after 1 hour at 80° C.): 3%; conversion to 1,5-cz-[Ln(Lig)], Tb^III ([1]; after 1 week at 80° C.): 83%; conversion to 1,5-cz-[Ln(Lig)], Tb^III ([1]; after 1 hour at 80° C.): 10%; conversion to 1,5-cz-[Ln(Lig)], Tm^III ([1]; after 1 week at 80° C.): 93%; conversion to 1,5-cz-[Ln(Lig)], Tm^III ([1]; after 1 hour at 80° C.): 45%; conversion to 1,5-cz-[Ln(Lig)], Yb^III ([1]; after 1 week at 80° C.): 95%; conversion to 1,5-cz-[Ln(Lig)], Yb^III ([1]; after 1 hour at 80° C.): 53%; conversion to 1,5-cz-[M(Lig)], Sc^III ([2]; 1 week at 80° C.): 8%; conversion to 1,5-cz-[M(Lig)], Y^III ([2]; 1 week at 80° C.): 91%; conversion to 1,5-cz-[M(Lig)], Sc^III ([2]; 1 hour at 80° C.): 1%; conversion to 1,5-cz-[M(Lig)], Y^III ([2]; 1 hour at 80° C.): 20%
